Experimental data: the supplement of paper PMC10307832

Assays:
Assay in all cases: relative viability (nuclei count vs DMSO), 5 days (fraction); higher = more cells survive
LOU-NH91 = tested on: LOU-NH91
Procedure, shortened: (§1)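 Medians of duplicate plates are given as relative viability. That measure is the nuclei count in treated wells divided by the count in vehicle wells. Counts were taken on 4× images of lung cancer cell lines in 1536-well plates, 5 days after pin-tool dosing the day after seeding with one drug alone or a fixed anchor-drug dose plus five library-drug doses (not always all listed) in √10 steps.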

NCI-H1650 = tested on: NCI-H1650
Procedure, shortened: as §1

NCI-H2228 = tested on: NCI-H2228
Procedure, shortened: as §1

LC-2-ad = tested on: LC-2-ad
Procedure, shortened: as §1

HARA = tested on: HARA
Procedure, shortened: as §1

LU99A = tested on: LU99A
Procedure, shortened: as §1

BEN = tested on: BEN
Procedure, shortened: as §1

SK-LU-1 = tested on: SK-LU-1
Procedure, shortened: as §1

NCI-H520 = tested on: NCI-H520
Procedure, shortened: as §1

NCI-H1793 = tested on: NCI-H1793
Procedure, shortened: as §1

NCI-H1944 = tested on: NCI-H1944
Procedure, shortened: as §1

LCLC-103H = tested on: LCLC-103H
Procedure, shortened: as §1

NCI-H3122 = tested on: NCI-H3122
Procedure, shortened: as §1

COR-L23 = tested on: COR-L23
Procedure, shortened: as §1

A-427 = tested on: A-427
Procedure, shortened: as §1

NCI-H322M = tested on: NCI-H322M
Procedure, shortened: as §1

NCI-H1666 = tested on: NCI-H1666
Procedure, shortened: as §1

NCI-H1915 = tested on: NCI-H1915
Procedure, shortened: as §1

PC-14 = tested on: PC-14
Procedure, shortened: as §1

NCI-H2170 = tested on: NCI-H2170
Procedure, shortened: as §1

NCI-H2087 = tested on: NCI-H2087
Procedure, shortened: as §1

NCI-H727 = tested on: NCI-H727
Procedure, shortened: as §1

EKVX = tested on: EKVX
Procedure, shortened: as §1

PC-3 [JPC-3] = tested on: PC-3 [JPC-3]
Procedure, shortened: as §1

## C=C1C(=O)O[C@@H](CCCCCCCC)[C@@H]1C(=O)O [C-75] + Cc1nc(Nc2ncc(C(=O)Nc3c(C)cccc3Cl)s2)cc(N2CCN(CCO)CC2)n1 [Dasatinib] (partner 0.075 µM)
LOU-NH91; first compound 0.08 µM
  relative viability: 0.605
LOU-NH91; first compound 0.253 µM
  relative viability: 0.527
LOU-NH91; first compound 0.8 µM
  relative viability: 0.492
LOU-NH91; first compound 2.53 µM
  relative viability: 0.414
LOU-NH91; first compound 8 µM
  relative viability: 0.544
NCI-H1650; first compound 0.08 µM
  relative viability: 0.334
NCI-H1650; first compound 0.253 µM
  relative viability: 0.359
NCI-H1650; first compound 2.53 µM
  relative viability: 0.31
NCI-H1650; first compound 8 µM
  relative viability: 0.305
NCI-H2228; first compound 0.08 µM
  relative viability: 0.613
NCI-H2228; first compound 0.253 µM
  relative viability: 0.627
NCI-H2228; first compound 0.8 µM
  relative viability: 0.524
NCI-H2228; first compound 2.53 µM
  relative viability: 0.394
NCI-H2228; first compound 8 µM
  relative viability: 0.396
LC-2-ad; first compound 0.08 µM
  relative viability: 0.491
LC-2-ad; first compound 0.253 µM
  relative viability: 0.521
LC-2-ad; first compound 0.8 µM
  relative viability: 0.468
LC-2-ad; first compound 2.53 µM
  relative viability: 0.455
LC-2-ad; first compound 8 µM
  relative viability: 0.4
HARA; first compound 0.08 µM
  relative viability: 0.257
HARA; first compound 0.253 µM
  relative viability: 0.241
HARA; first compound 0.8 µM
  relative viability: 0.239
HARA; first compound 2.53 µM
  relative viability: 0.178
HARA; first compound 8 µM
  relative viability: 0.298
LU99A; first compound 0.08 µM
  relative viability: 0.597
LU99A; first compound 0.253 µM
  relative viability: 0.558
LU99A; first compound 0.8 µM
  relative viability: 0.549
LU99A; first compound 2.53 µM
  relative viability: 0.495
LU99A; first compound 8 µM
  relative viability: 0.38
BEN; first compound 0.08 µM
  relative viability: 0.317
BEN; first compound 0.253 µM
  relative viability: 0.271
BEN; first compound 0.8 µM
  relative viability: 0.326
BEN; first compound 8 µM
  relative viability: 0.288
SK-LU-1; first compound 0.08 µM
  relative viability: 0.168
SK-LU-1; first compound 0.253 µM
  relative viability: 0.175
SK-LU-1; first compound 0.8 µM
  relative viability: 0.166
SK-LU-1; first compound 2.53 µM
  relative viability: 0.127
SK-LU-1; first compound 8 µM
  relative viability: 0.172
NCI-H520; first compound 0.08 µM
  relative viability: 0.188
NCI-H520; first compound 0.253 µM
  relative viability: 0.206
NCI-H520; first compound 0.8 µM
  relative viability: 0.206
NCI-H520; first compound 2.53 µM
  relative viability: 0.182
NCI-H520; first compound 8 µM
  relative viability: 0.179
NCI-H1793; first compound 0.08 µM
  relative viability: 0.399
NCI-H1793; first compound 0.253 µM
  relative viability: 0.373
NCI-H1793; first compound 0.8 µM
  relative viability: 0.32
NCI-H1793; first compound 2.53 µM
  relative viability: 0.352
NCI-H1793; first compound 8 µM
  relative viability: 0.373
NCI-H1944; first compound 0.08 µM
  relative viability: 0.234
NCI-H1944; first compound 0.253 µM
  relative viability: 0.169
NCI-H1944; first compound 0.8 µM
  relative viability: 0.193
NCI-H1944; first compound 8 µM
  relative viability: 0.225
LCLC-103H; first compound 0.08 µM
  relative viability: 0.445
LCLC-103H; first compound 0.253 µM
  relative viability: 0.451
LCLC-103H; first compound 0.8 µM
  relative viability: 0.511
LCLC-103H; first compound 2.53 µM
  relative viability: 0.351
LCLC-103H; first compound 8 µM
  relative viability: 0.524
NCI-H3122; first compound 0.08 µM
  relative viability: 0.832
NCI-H3122; first compound 0.253 µM
  relative viability: 0.798
NCI-H3122; first compound 0.8 µM
  relative viability: 0.583
NCI-H3122; first compound 2.53 µM
  relative viability: 0.594
NCI-H3122; first compound 8 µM
  relative viability: 0.742
COR-L23; first compound 0.08 µM
  relative viability: 0.518
COR-L23; first compound 0.253 µM
  relative viability: 0.532
COR-L23; first compound 0.8 µM
  relative viability: 0.489
COR-L23; first compound 2.53 µM
  relative viability: 0.328
COR-L23; first compound 8 µM
  relative viability: 0.48
A-427; first compound 0.08 µM
  relative viability: 0.689
A-427; first compound 0.253 µM
  relative viability: 0.661
A-427; first compound 0.8 µM
  relative viability: 0.645
A-427; first compound 2.53 µM
  relative viability: 0.605
A-427; first compound 8 µM
  relative viability: 0.658
NCI-H322M; first compound 0.08 µM
  relative viability: 0.241
NCI-H322M; first compound 0.253 µM
  relative viability: 0.244
NCI-H322M; first compound 0.8 µM
  relative viability: 0.272
NCI-H322M; first compound 2.53 µM
  relative viability: 0.198
NCI-H322M; first compound 8 µM
  relative viability: 0.313
NCI-H1666; first compound 0.08 µM
  relative viability: 0.836
NCI-H1666; first compound 0.253 µM
  relative viability: 0.779
NCI-H1666; first compound 0.8 µM
  relative viability: 0.74
NCI-H1666; first compound 2.53 µM
  relative viability: 0.719
NCI-H1666; first compound 8 µM
  relative viability: 0.711
NCI-H1915; first compound 0.08 µM
  relative viability: 0.343
NCI-H1915; first compound 0.253 µM
  relative viability: 0.304
NCI-H1915; first compound 0.8 µM
  relative viability: 0.311
NCI-H1915; first compound 2.53 µM
  relative viability: 0.289
NCI-H1915; first compound 8 µM
  relative viability: 0.383
PC-14; first compound 0.08 µM
  relative viability: 0.292
PC-14; first compound 0.253 µM
  relative viability: 0.227
PC-14; first compound 0.8 µM
  relative viability: 0.27
PC-14; first compound 2.53 µM
  relative viability: 0.272
PC-14; first compound 8 µM
  relative viability: 0.222
NCI-H2170; first compound 0.08 µM
  relative viability: 0.692
NCI-H2170; first compound 0.253 µM
  relative viability: 0.552
NCI-H2170; first compound 0.8 µM
  relative viability: 0.552
NCI-H2170; first compound 2.53 µM
  relative viability: 0.476
NCI-H2170; first compound 8 µM
  relative viability: 0.522
NCI-H2087; first compound 0.08 µM
  relative viability: 0.88
NCI-H2087; first compound 0.253 µM
  relative viability: 1.06
NCI-H2087; first compound 0.8 µM
  relative viability: 0.66
NCI-H2087; first compound 2.53 µM
  relative viability: 0.829
NCI-H2087; first compound 8 µM
  relative viability: 0.865
NCI-H727; first compound 0.08 µM
  relative viability: 0.406
NCI-H727; first compound 0.253 µM
  relative viability: 0.494
NCI-H727; first compound 0.8 µM
  relative viability: 0.417
NCI-H727; first compound 8 µM
  relative viability: 0.305
EKVX; first compound 0.08 µM
  relative viability: 0.535
EKVX; first compound 0.253 µM
  relative viability: 0.584
EKVX; first compound 0.8 µM
  relative viability: 0.564
EKVX; first compound 8 µM
  relative viability: 0.481
PC-3 [JPC-3]; first compound 0.08 µM
  relative viability: 1.01
PC-3 [JPC-3]; first compound 0.253 µM
  relative viability: 0.994
PC-3 [JPC-3]; first compound 0.8 µM
  relative viability: 1.01
PC-3 [JPC-3]; first compound 2.53 µM
  relative viability: 0.937
PC-3 [JPC-3]; first compound 8 µM
  relative viability: 1
